The values below come from patent US20260070945A1, “MACROCYCLIC IMMUNOMODULATORS” (Bristol-Myers Squibb Company, priority 2022, published 2026).

What is called IC50 is the concentration that gives 50% inhibition.

*1 amine or outer side, *2 acyl side, *3 side chain or, on linkers, in order; H or OH if unused. Where a SMILES comes first, the peptide text is derived from it. Bridges are numbered along the chain shown (N, C = ends). [ ]: non-standard residue; d: D form. The star is where a group is joined. Phe(4-COOH) = N[C@@H](Cc1ccc(C(=O)O)cc1)C(=O)O; Bip = N[C@@H](Cc1ccc(-c2ccccc2)cc1)C(=O)O; Phe(4-CN) = N#Cc1ccc(C[C@H](N)C(=O)O)cc1; Phe(3-Me) = Cc1cccc(C[C@H](N)C(=O)O)c1; γGlu = O=C(O)[C@H](CCC(=O)[*:2])N[*:1]; Val(3-OH) = CC(C)(O)[C@H](N)C(=O)O; 4Pal = N[C@@H](Cc1ccncc1)C(=O)O; Cha = N[C@@H](CC1CCCCC1)C(=O)O; Carboxymethyl = O=C(O)C*; NMeA = CN[C@@H](C)C(=O)O; Aun = NCCCCCCCCCCC(=O)O; Dab = NCC[C@H](N)C(=O)O; AEEA = NCCOCCOCC(=O)O

T1 sequence (Q15116 25-288): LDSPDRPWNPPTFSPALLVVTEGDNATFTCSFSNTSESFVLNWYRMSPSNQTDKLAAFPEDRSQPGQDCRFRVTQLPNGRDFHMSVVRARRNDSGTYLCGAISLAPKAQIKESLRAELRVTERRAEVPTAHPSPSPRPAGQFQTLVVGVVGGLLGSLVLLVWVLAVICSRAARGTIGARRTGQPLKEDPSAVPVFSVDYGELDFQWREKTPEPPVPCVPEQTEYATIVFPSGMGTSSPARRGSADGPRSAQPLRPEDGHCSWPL

The first experiment has as its target T1, PD-1/PD-L1 interaction (PE-labeled human PD-L1-Ig binding to Jurkat cell line over-expressing human PD-1) (Homo sapiens, UniProt Q15116).
T1 construct: expressed in transfected cells; host or cells: Jurkat
As to the kind of experiment: Jurkat-PD-1 Cell Binding High-Content Screening Assay (CBA). Particulars: Jurkat-hPD-1 cells, PE-labeled PD-L1-Ig 20 nM final; read-out: Jurkat HPD1 PDL1 IC50. On the procedure:
Example 2: Jurkat-PD-1 Cell Binding High-Content Screening Assay (CBA)
Phycoerythrin (PE) was covalently linked to the Ig epitope tag of human PD-L1-Ig and fluorescently-labeled PD-L1-Ig was used for binding studies with a Jurkat cell line over-expressing human PD-1 (Jurkat-PD-1). Briefly, 8×10^3 Jurkat-hPD-1 cells were seeded into 384 well plates in 20 μl of DMEM supplemented with 10% fetal calf serum. 100 nl of compound was added to cells followed by incubation at 37° C. for 2 hours. Then, 5 μl of PE-labeled PD-L1-Ig (20 nM final), diluted in DMEM supplemented with 10% fetal calf serum. After 1 hour incubation, cells were fixed with […] in dPBS containing 10 μg/ml Hoechst 33342 and then washed 3× in 100 μl dPBS. Data was collected and processed using a Cell Insight NXT High Content Imager and associated software.
Regarding `CC(C)C[C@@H]1NC(=O)[C@H](Cc2c[nH]c3ccccc23)NC(=O)[C@H](CC(=O)O)NC(=O)[C@H](Cc2ccc(C(=O)O)cc2)NC(=O)[C@H](Cc2ccc(OCC(=O)O)cc2)NC(=O)CSC[C@@H](C(=O)N[C@@H](CCN)C(=O)NCCCCCCCCCCC(=O)O)NC(=O)[C@H](CCC(N)=O)NC(=O)[C@H](C(C)C)NC(=O)[C@H](CC2CCCCC2)NC(=O)[C@H](CCN)NC(=O)[C@@H](CC(C)C)NC(=O)[C@H](C)N(C)C(=O)[C@H](C(C)C)NC(=O)[C@H](Cc2ccc(-c3ccccc3)cc2)NC1=O` [Example 1000] ({CH2CO}-Y(Carboxymethyl)[Phe(4-COOH)]DWL[Bip]V[NMeA][dL][Dab][Cha]VQC[Dab][Aun]-OH; thioether N-14), the IC50 stood at 23.4 nM.

As for `Cc1cccc(C[C@@H]2NC(=O)[C@H](CC(=O)O)NC(=O)[C@H](Cc3ccc(C(=O)O)cc3)NC(=O)[C@H](Cc3ccc(OCC(=O)O)cc3)NC(=O)CSC[C@@H](C(=O)N[C@@H](CC(=O)O)C(=O)NCCCCCCCCCCC(=O)O)NC(=O)[C@H](CO)NC(=O)[C@H](C(C)C)NC(=O)[C@H](CC(C)C)NC(=O)[C@H](CC(N)=O)NC(=O)[C@@H](CC(C)C)NC(=O)[C@H](C)N(C)C(=O)[C@H](C(C)C)NC(=O)[C@H](Cc3ccc(-c4ccccc4)cc3)NC(=O)[C@H](CC(C)C)NC2=O)c1` [Example 1001] ({CH2CO}-Y(Carboxymethyl)[Phe(4-COOH)]D[Phe(3-Me)]L[Bip]V[NMeA][dL]NLVSCD[Aun]-OH; thioether N-14 (inferred)), the IC50 came to 92.1 nM.

Turning to `Cc1cccc(C[C@@H]2NC(=O)[C@H](CC(=O)O)NC(=O)[C@H](Cc3ccc(C(=O)O)cc3)NC(=O)[C@H](Cc3ccc(C#N)cc3)NC(=O)CSC[C@@H](C(=O)N[C@@H](CCN)C(=O)NCCCCCCCCCCC(=O)O)NC(=O)[C@H](CO)NC(=O)[C@H](C(C)(C)O)NC(=O)[C@H](CC3CCCCC3)NC(=O)[C@H](CCN)NC(=O)[C@@H](CC(C)C)NC(=O)[C@H](C)N(C)C(=O)[C@H](Cc3ccc(OCC(=O)O)cc3)NC(=O)[C@H](Cc3ccc(-c4ccccc4)cc3)NC(=O)[C@H](Cc3ccc(OCC(=O)O)cc3)NC2=O)c1` [Example 1002] ({CH2CO}-[Phe(4-CN)][Phe(4-COOH)]D[Phe(3-Me)]Y(Carboxymethyl)[Bip]Y(Carboxymethyl)[NMeA][dL][Dab][Cha][Val(3-OH)]SC[Dab][Aun]-OH; thioether N-14), the half-maximal inhibitory concentration (IC50) is 11 nM.

As to `Cc1cccc(C[C@@H]2NC(=O)[C@H](CC(=O)O)NC(=O)[C@H](Cc3ccc(C(=O)O)cc3)NC(=O)[C@H](Cc3ccc(OCC(=O)O)cc3)NC(=O)CSC[C@@H](C(=O)N[C@@H](CCC(=O)O)C(=O)NCCCCCCCCCCC(=O)O)NC(=O)[C@H](CO)NC(=O)[C@H](C(C)C)NC(=O)[C@H](CC(C)C)NC(=O)[C@H](CC(N)=O)NC(=O)[C@@H](CC(C)C)NC(=O)[C@H](C)N(C)C(=O)[C@H](C(C)C)NC(=O)[C@H](Cc3ccc(-c4ccccc4)cc3)NC(=O)[C@H](CC(C)C)NC2=O)c1` [Example 1003] ({CH2CO}-Y(Carboxymethyl)[Phe(4-COOH)]D[Phe(3-Me)]L[Bip]V[NMeA][dL]NLVSCE[Aun]-OH; thioether N-14), the IC50 turned out to be 20.1 nM.

As to `Cc1cccc(C[C@@H]2NC(=O)[C@H](CC(=O)O)NC(=O)[C@H](Cc3ccc(C(=O)O)cc3)NC(=O)[C@H](Cc3ccc(OCC(=O)O)cc3)NC(=O)CSC[C@@H](C(=O)NCC(=O)N[C@@H](CCC(=O)O)C(=O)NCCCCCCCCCCC(=O)O)NC(=O)[C@H](CO)NC(=O)[C@H](C(C)C)NC(=O)[C@H](CC(C)C)NC(=O)[C@H](CC(N)=O)NC(=O)[C@@H](CC(C)C)NC(=O)[C@H](C)N(C)C(=O)[C@H](C(C)C)NC(=O)[C@H](Cc3ccc(-c4ccccc4)cc3)NC(=O)[C@H](CC(C)C)NC2=O)c1` [Example 1005] ({CH2CO}-Y(Carboxymethyl)[Phe(4-COOH)]D[Phe(3-Me)]L[Bip]V[NMeA][dL]NLVSCGE[Aun]-OH; thioether N-14), the IC50 was 49.5 nM.

As for `Cc1cccc(C[C@@H]2NC(=O)[C@H](CC(=O)O)NC(=O)[C@H](Cc3ccc(C(=O)O)cc3)NC(=O)[C@H](Cc3ccc(OCC(=O)O)cc3)NC(=O)CSC[C@@H](C(=O)NCCCCCCCCCCC(=O)O)NC(=O)[C@H](CO)NC(=O)[C@H](C(C)C)NC(=O)[C@H](CC(C)C)NC(=O)[C@H](CC(N)=O)NC(=O)[C@@H](CC(C)C)NC(=O)[C@H](C)N(C)C(=O)[C@H](C(C)C)NC(=O)[C@H](Cc3ccc(-c4ccccc4)cc3)NC(=O)[C@H](CC(C)C)NC2=O)c1` [Example 1007] ({CH2CO}-Y(Carboxymethyl)[Phe(4-COOH)]D[Phe(3-Me)]L[Bip]V[NMeA][dL]NLVSC[Aun]-OH; thioether N-14), the concentration for half-maximal inhibition (IC50) amounted to 111 nM.

As to `Cc1cccc(C[C@@H]2NC(=O)[C@H](CC(=O)O)NC(=O)[C@H](Cc3ccc(C(=O)O)cc3)NC(=O)[C@H](Cc3ccc(OCC(=O)O)cc3)NC(=O)CSC[C@@H](C(=O)NCC(=O)NCCOCCOCC(=O)NCCCCCCCCCCC(=O)O)NC(=O)[C@H](CO)NC(=O)[C@H](C(C)C)NC(=O)[C@H](CC(C)C)NC(=O)[C@H](CC(N)=O)NC(=O)[C@@H](CC(C)C)NC(=O)[C@H](C)N(C)C(=O)[C@H](C(C)C)NC(=O)[C@H](Cc3ccc(-c4ccccc4)cc3)NC(=O)[C@H](CC(C)C)NC2=O)c1` [Example 1011] ({CH2CO}-Y(Carboxymethyl)[Phe(4-COOH)]D[Phe(3-Me)]L[Bip]V[NMeA][dL]NLVSCG[AEEA][Aun]-OH; thioether N-14), the IC50 is 24.6 nM.

On to `Cc1cccc(C[C@@H]2NC(=O)[C@H](CC(=O)O)NC(=O)[C@H](Cc3ccc(C(=O)O)cc3)NC(=O)[C@H](Cc3ccc(OCC(=O)O)cc3)NC(=O)CSC[C@@H](C(=O)NCC(=O)N[C@@H](CCC(=O)O)C(=O)NCCOCCOCC(=O)N[C@@H](CCC(=O)NCCCCCCCCCCC(=O)O)C(=O)O)NC(=O)[C@H](CO)NC(=O)[C@H](C(C)C)NC(=O)[C@H](CC(C)C)NC(=O)[C@H](CC(N)=O)NC(=O)[C@@H](CC(C)C)NC(=O)[C@H](C)N(C)C(=O)[C@H](C(C)C)NC(=O)[C@H](Cc3ccc(-c4ccccc4)cc3)NC(=O)[C@H](CC(C)C)NC2=O)c1` [Example 1013] ({CH2CO}-Y(Carboxymethyl)[Phe(4-COOH)]D[Phe(3-Me)]L[Bip]V[NMeA][dL]NLVSCGE[AEEA][γGlu][Aun]-OH; thioether N-14), for which the half-inhibitory concentration (IC50) was found to be 36.5 nM.

In the case of `Cc1cccc(C[C@@H]2NC(=O)[C@H](CC(=O)O)NC(=O)[C@H](Cc3ccc(C(=O)O)cc3)NC(=O)[C@H](Cc3ccc(OCC(=O)O)cc3)NC(=O)CSC[C@@H](C(=O)NCC(=O)N[C@@H](CCC(=O)NCCOCCOCC(=O)N[C@@H](CC(=O)O)C(=O)NCCCCCCCCCCC(=O)O)C(=O)O)NC(=O)[C@H](CO)NC(=O)[C@H](C(C)C)NC(=O)[C@H](CC(C)C)NC(=O)[C@H](CC(N)=O)NC(=O)[C@@H](CC(C)C)NC(=O)[C@H](C)N(C)C(=O)[C@H](C(C)C)NC(=O)[C@H](Cc3ccc(-c4ccccc4)cc3)NC(=O)[C@H](CC(C)C)NC2=O)c1` [Example 1014] ({CH2CO}-Y(Carboxymethyl)[Phe(4-COOH)]D[Phe(3-Me)]L[Bip]V[NMeA][dL]NLVSCG[γGlu][AEEA]D[Aun]-OH; thioether N-14), the IC50 stood at 48.5 nM.

For `Cc1cccc(C[C@@H]2NC(=O)[C@H](CC(=O)O)NC(=O)[C@H](Cc3ccc(C(=O)O)cc3)NC(=O)[C@H](Cc3ccc(OCC(=O)O)cc3)NC(=O)CSC[C@@H](C(=O)NCC(=O)N[C@@H](CCC(=O)NCCOCCOCC(=O)N[C@@H](CCC(=O)O)C(=O)NCCCCCCCCCCC(=O)O)C(=O)O)NC(=O)[C@H](CO)NC(=O)[C@H](C(C)C)NC(=O)[C@H](CC(C)C)NC(=O)[C@H](CC(N)=O)NC(=O)[C@@H](CC(C)C)NC(=O)[C@H](C)N(C)C(=O)[C@H](C(C)C)NC(=O)[C@H](Cc3ccc(-c4ccccc4)cc3)NC(=O)[C@H](CC(C)C)NC2=O)c1` [Example 1015] ({CH2CO}-Y(Carboxymethyl)[Phe(4-COOH)]D[Phe(3-Me)]L[Bip]V[NMeA][dL]NLVSCG[γGlu][AEEA]E[Aun]-OH; thioether N-14), the 50% inhibitory concentration (IC50) amounted to 54.1 nM.

Turning to `Cc1cccc(C[C@@H]2NC(=O)[C@H](CC(=O)O)NC(=O)[C@H](Cc3ccncc3)NC(=O)[C@H](Cc3ccc(OCC(=O)O)cc3)NC(=O)CSC[C@@H](C(=O)NCC(=O)N[C@@H](CCC(=O)NCCOCCOCC(=O)N[C@@H](CCC(=O)NCCOCCOCC(=O)NCCCCCCCCCCC(=O)O)C(=O)O)C(=O)O)NC(=O)[C@H](CO)NC(=O)[C@H](C(C)C)NC(=O)[C@H](CC(C)C)NC(=O)[C@H](CC(N)=O)NC(=O)[C@@H](CC(C)C)NC(=O)[C@H](C)N(C)C(=O)[C@H](C(C)C)NC(=O)[C@H](Cc3ccc(-c4ccccc4)cc3)NC(=O)[C@H](CC(C)C)NC2=O)c1` [Example 1016] ({CH2CO}-Y(Carboxymethyl)[4Pal]D[Phe(3-Me)]L[Bip]V[NMeA][dL]NLVSCG[γGlu][AEEA][γGlu][AEEA][Aun]-OH; thioether N-14), the IC50 stood at 29.8 nM.

The same experiment, now with this note: PE-labeled PD-L1-Ig 20 nM final, Jurkat-hPD-1 cells; read-out: Jurkat HPD1 PDL1 IC50.
In the case of `CC(=O)NCCCC[C@@H]1NC(=O)[C@H](C(C)(C)O)NC(=O)[C@H](CC2CCCCC2)NC(=O)[C@H](CCN)NC(=O)[C@@H](CC(C)C)NC(=O)[C@H](C)N(C)C(=O)[C@H](Cc2ccc(C(=O)O)cc2)NC(=O)[C@H](Cc2ccc(-c3ccccc3)cc2)NC(=O)[C@H](Cc2ccc(C(=O)O)cc2)NC(=O)[C@H](Cc2cccc(C)c2)NC(=O)[C@H](CC(=O)O)NC(=O)[C@H](Cc2ccc(OCC(=O)O)cc2)NC(=O)[C@H](C(C)O)NC(=O)CSC[C@@H](C(=O)N[C@@H](CCN)C(=O)NCCOCCOCC(=O)N[C@@H](CCC(=O)NCCCCCCCCCCCCC(=O)O)C(=O)O)NC1=O` (mixture of isomers) [Example 2659], the IC50 was 11.4 nM.
